Measured values reported in US20160058847A1, “IS100- A Highly Effective Enzyme Principle For Use In Dermal Therapeutics, And For Health And Beauty” (Issar Pharmaceuticals Pvt. Ltd., priority 2014, published 2016).
“Also recorded” adds a separate entry of the source.

Columns and labels:
IS 100 [1] = settings: Ac-DEVD-AFC hydrolysis
Experimental: Rates of hydrolysis of a synthetic peptide Ac-DEVD↓-AFC (N-acetyl-Asp-Glu-Val-Asp-7-amino-4-trifluoromethylcoumarin) as a function of variables are plotted. Note that the rate, ΔF, is determined from the initial slope of the time-dependent fluorescence trace.
In the present test, 400 μL of IS 100 is combined with 2 μL of a 1 mM solution of Ac-DEVD↓-AFC, and the fluorescence is monitored as a function of time at 37° C.

IS 100 [2] = format: biochemical, wheat; settings: pH 7, 37° C.; for inhibition of IS 100 activity (in words): Ac-DEVD-AFC hydrolysis, 20 mM HEPES, 0.05% CHAPS, 5% sucrose, FIG. 3
Experimental: As described above, the proteolytic activity of IS 100 can be blocked by using an inhibitor which blocks the active site of the protein enzyme present in the IS 100 principle. In FIG. 2 inhibitor Ac-DEVD-CHO inhibits the activity of IS 100. Several other chemicals or compounds can be tested for their efficacy in blocking the activity of IS 100. In such experiments, IS 100 is mixed with its synthetic substrate Ac-DEVD↓-AFC, and a constant volume of the inhibitor compound is added to check the extent to which the inhibitor blocks the activity of IS 100. In all experimental runs the concentrations of IS 100 and Ac-DEVD↓-AFC are maintained uniformly. The pH for all experiments is kept at 7 and the experiments are run at 37° C.

human recombinant PKR = test: Proteolytic cleavage of PKR by IS 100, Western analysis; format: biochemical; settings: inhibitor included in reaction mixture, FIG. 2 lane 1
Experimental: (§1) FIG. 2 illustrates proteolytic cleavage by formulation IS 100 shown by Western analysis of cleavage products of substrate proteins. IS 100 was incubated with the test protein in the presence and absence of the synthetic inhibitor Ac-DEVD-CHO, and the reaction product was immunoblotted using antibody for the test protein.
(§2) These two proteins were chosen simply because of their ready availability with the investigators. In fact, any protein will be a substrate for IS 100. In a typical protocol, IS 100 is incubated with the test substrate protein in the presence and absence of the synthetic inhibitor Ac-DEVD-CHO, and the reaction products are analyzed by electrophoresis, the amount of the uncut test protein is immunoblotted with human anti-PKR or anti-PERK antibodies. Note that immunoblotting of a test protein by using the corresponding antibody will show the status of that protein alone, and not other proteins present in IS 100.

human recombinant PERK = test: Proteolytic cleavage of PERK by IS 100, Western analysis; format: biochemical; settings: inhibitor included in reaction mixture, FIG. 2 lane 1
Experimental: as §1, §2

[Cl-].[Na+] [NaCl, sodium chloride]
effect of NaCl concentration on enzyme activity (IS 100 [1]; FIG. 1D): highly sensitive

Ac-DEVD-CHO
inhibition of IS 100 activity (in words) (IS 100 [2]): inhibits the activity of IS 100 significantly | block of PKR cleavage by IS 100 (human recombinant PKR): cleavage is blocked; also recorded: not cleaved | block of PERK cleavage by IS 100 (human recombinant PERK): cleavage is blocked; also recorded: not cleaved

[Cl-].[Cl-].[Zn+2] [ZnCl2, zinc chloride]
Kd (IS 100 [1]; read-out: apparent binding constant, KZn app (inhibition), FIG. 1E): 310 µM

[Cl-].[Cl-].[Mg+2] [MgCl2, magnesium chloride]
concentration at which the activity passes through a minimum (IS 100 [1]; FIG. 1F): ~0.1 mM

CC(=O)N[C@@H](CC(C)C)C(=O)N[C@@H](CC(C)C)C(=O)N[C@H](C=O)CCCNC(=N)N [leupeptin]
inhibition of IS 100 activity (in words) (IS 100 [2]): influences the activity to some extent | inhibition of IS 100 activity, saturation level (IS 100 [2]; at ~25 μM, FIG. 3B): 30%

O=S(=O)(F)Cc1ccccc1 [PMSF, phenylmethanesulfonyl fluoride]
inhibition of IS 100 activity (in words) (IS 100 [2]): only marginally; also recorded: sign of inhibition is also apparent | inhibition of IS 100 activity (IS 100 [2]; at 1000 μM, FIG. 3C): ~10%

O=C(O)CI [IAA, Iodoacetic acid]
inhibition of IS 100 activity (in words) (IS 100 [2]): completely inhibits the activity; also recorded: almost completely knocks out the activity
